Structures can show the parent of a compound that is named as a salt.
System: MTT (mouse pheochromocytoma)
Assay: IC50 of cell viability (ATP content)
Settings: (24 or 48 h)
Method in brief: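 Cells of the MTT mouse pheochromocytoma line, 5 µl per well at 200,000 cells/ml, were grown overnight at 37°C, 5% CO2 in white 1536-well plates with DMEM, 5% FBS and 1% horse serum. Pintool transfer then delivered 23 nl of library compound in DMSO, giving 8 final concentrations from 0.5 nM to 46 µM, for an exposure of 24 or 48 hrs. Luminescence from CellTiter-Glo was read after 15 minutes and referenced to positive-control wells (100%) and DMSO wells (0%). IC50 was calculated with a four-parameter logistic fit.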

| SMILES | IC50 of cell viability [µM] |
| --- | --- |
| C#CC(C)(O)CC (configuration not stated) [Methylpentynolum] | > 46 |
| COC(=O)C(c1ccccc1)C1CCCCN1.[Cl-].[H+] (configuration not stated) [Methylphenidate hydrochloride] | > 46 |
| Cc1cc2c(cc1[S+](N)(=O)[O-])[S+](=O)([O-])CCC2 [Meticrane] | > 46 |
| CC(=O)Oc1c(C)cc(OCC(O)CNC(C)C)c(C)c1C (configuration not stated) [Metipranolol] | > 46 |
| Cc1ccccc1N1C(=O)c2cc([S+](N)(=O)[O-])c(Cl)cc2NC1C (configuration not stated) [Metolazone] | > 46 |
| Cc1ccccc1CNc1ncnc2c1ncn2C1OC(CO)C(O)C1O (configuration not stated) [Metrifudil] | > 46 |
| CC(=O)Nc1c(I)c(C(=O)N[C@H]2[C@H](O)[C@H](O)[C@H](CO)O[C@@H]2O)c(I)c(N(C)C(C)=O)c1I [Metrizamide] | > 46 |
| Cc1cccc(C)c1OCC(C)N.Cl (configuration not stated) [Mexiletene hydrochloride] | > 46 |
| Clc1ccc(CO[C@@H](Cn2ccnc2)c2ccc(Cl)cc2Cl)c(Cl)c1 [Miconazole] | > 46 |
| CNC[C@@H]1CC[C@@H](N)[C@@H](O[C@H]2[C@H](O)[C@@H](O[C@H]3OC[C@](C)(O)[C@H](NC)[C@H]3O)[C@H](N)C[C@@H]2N)O1 [Micronomicin sulfate] | > 46 |
| Cc1[nH]c(=O)c(C#N)cc1-c1ccncc1 [Milrinone] | > 46 |
| C\C1=C(\C=C(\C#N)C(=O)N1)C2=CC=NC=C2 [Milrinone] | > 46 |
| CCCCC(C)(O)C/C=C/[C@H]1[C@H](O)CC(=O)[C@@H]1CCCCCCC(=O)OC (some centres not stated) [Misoprostol] | > 46 |
| Clc1ccc(C(c2ccccc2Cl)C(Cl)Cl)cc1 (configuration not stated) [Mitotane] | > 46 |
| COc1cc2c(cc1OC)[C@@H](Cc1cc(OC)c(OC)c(OC)c1)[N@+](C)(CCCOC(=O)CC/C=C/CCC(=O)OCCC[N@+]1(C)CCc3cc(OC)c(OC)cc3[C@H]1Cc1cc(OC)c(OC)c(OC)c1)CC2 [Mivacurium] | > 46 |
| NC(=O)c1ncn([C@@H]2O[C@H](CO)[C@@H](O)[C@H]2O)c1O [Mizoribine] | > 46 |
| CCC1([C@@H]2O[C@@H]([C@@H]3O[C@](O)(CO)[C@@H](C)C[C@H]3C)C[C@H]2C)CC[C@H]([C@]2(C)CC[C@]3(C[C@@H](O)[C@@H](C)[C@H]([C@H](C)[C@H](OC)[C@H](C)C(=O)[O-])O3)O2)O1.[Na+] (some centres not stated) [Monensin sodium salt] | > 46 |
| CCCCC(CC)COC(=O)c1ccccc1C(=O)O (configuration not stated) [Mono(2-ethylhexyl) phthalate] | > 46 |

Other lines, results leading:

| IC50 of cell viability [µM] | SMILES |
| --- | --- |
| > 46 | CC(=O)OCC(=O)[C@@]1(O)CCC2C3C[C@H](C)C4=CC(=O)C=CC4(C)C3C(O)CC21C (some centres not stated) [Methylprednisolone acetate] |
| > 46 | C[C@H]\1C[C@H]2[C@H]3CC[C@](O)(C(=O)CO)[C@]3(C)C[C@@H](O)[C@@H]2[C@]4(C)\C=C/C(=O)/C=C14 [Methylprednisolone, 6-alpha] |
| > 46 | CN1CCC[C@H](CC2c3ccccc3Sc3ccccc32)C1 [Metixene hydrochloride] |
| > 46 | COc1ccc(/C=C/C(=O)c2ccc(OC)cc2OC)cc1 [Metochalcone] |
| > 46 | COC1=CC=C2[N]3CCN(C)\C4=N\CCC(=C34)C2=C1 [Metralindole] |
| > 46 | CC(C)(C(=O)c1cccnc1)c1cccnc1 [Metyrapone] |
| > 46 | C[C@](N)(Cc1ccc(O)cc1)C(=O)O [Metyrosine] |
| > 46 | COc1ccc(C(=O)c2ccc(C)cc2)c(O)c1 [Mexenone] |
| > 46 | CCC(=O)O[C@@H]1[C@H](C)O[C@@H](O[C@H]2[C@@H](N(C)C)[C@@H](O)[C@H](O[C@H]3[C@H](CC=O)C[C@@H](C)[C@@H](O)/C=C\C=C/C[C@@H](C)OC(=O)C[C@@H](OC(=O)CC)[C@H]3OC)O[C@H]2C)C[C@]1(C)O [Midecamycin] |
| > 46 | COc1ccc(OC)c([C@H](O)CNC(=O)CN)c1 [Midodrine hydrochloride] |
| > 46 | CN(C)c1ccc(O)c2c1CC1CC3C(N(C)C)C(=O)C(C(N)=O)C(=O)C3(O)C(=O)C1C2=O (configuration not stated) [Minocycline] |
| > 46 | O=P(O)(O)C(O)(Cc1cnc2ccccn12)P(=O)(O)O [Minodronic acid] |
| > 46 | CCCCCCCCCCCCCCCCCCNC(=O)OC1CCN(C(=O)OC[C@H](COC(=O)N(Cc2cccc[n+]2CC)C(=O)c2ccccc2OC)OC)CC1 [Minopafant] |
| > 46 | CN1CCN2c3ncccc3Cc3ccccc3C2C1 (configuration not stated) [Mirtazapine] |
| > 46 | O=C(NCCN1CCOCC1)c1ccc(Cl)cc1 [Moclobemide] |
| > 46 | CCc1c(C)[nH]c2c1C(=O)[C@H](CN1CCOCC1)CC2 [Molindone hydrochloride] |
| > 46 | COc1ccc(C(=O)N2CCN(CC(=O)N3CCOCC3)CC2)cc1 [Molracetam] |
| > 46 | CCOC(=O)[N-]c1c[n+](N2CCOCC2)no1 [Molsidomine] |
| > 46 | C[C@H]1C[C@H]2[C@H]3CC\C4=C\C(=O)\C=C/[C@@]4(C)[C@@]3(Cl)[C@@H](O)C[C@]2(C)[C@]1(OC(=O)C5=CC=CO5)C(=O)CCl [Mometasone furoate] |
